Assay results: patent publication US12691100B2, “NMT inhibitor treatment of a senescence-associated disease or disorder of the liver” (Imperial College Innovations Limited, priority 2020, dated 2026)

What was measured:
Type in all cases: cell-based, human
[1] = system: IMR90 ER:RAS cells; test: Senolytic activity under IRE1 inhibition with KIRA6; conditions: with 600 nM KIRA6, 4OHT treated cells; FIGS. 15A-B
Method: High-throughput microscopy survival assay—To assess senolytic effect of drugs, cells were cultured for 7 days, culture media was changed to DM0.5 media and drugs in DMSO were added (<5% v/v final concentration), drugs were replenished after 3 days if assay length was longer than 72 h. Wells were fixed in 4% PFA for 1 hour at day 10 to 14, washed 3 times with PBS and then stained with 1 μg/mL DAPI (w/v, PBS) for 10 minutes. Wells were then washed 3 times with PBS. Optionally plates could be stored at 4° C. for up to 2 weeks and DAPI stained. Image acquisition of DAPI stained cells was performed on an automated InCell Analyser 2000 (GE Healthcare®) and high-content analysis on the InCell Investigator 2.7.3 software used to quantify number of DAPI positive cells per well. A top-hat method was used to segment cell-nuclei based on DAPI stained area and a minimum nuclear area threshold of 80 μm used to exclude debris. For cancer cell lines, nuclear area threshold was reduced to 40 μm. Survival was measured as cell counts relative to DMSO treated quiescent or senescent cells.
To investigate whether the activation of UPR caused by NMT inhibition in senescent cells was responsible for the senolytic potential of NMT inhibitors, cells were treated with KIRA6, a selective inhibitor of IRE1, a kinase necessary for the UPR. IMR90 ER:RAS cells undergoing senescence (after induction with 4OHT), were treated with 600 nM KIRA6 (an IRE1 inhibitor) on day 4 post-induction. On day 7 post-induction, cells were treated with Compound 1 or 2 and 600 nM KIRA6. […] Both NMT inhibitor and Kira6 were replenished 3 days after addition of NMT inhibitor (at day 10 post-induction). Data is shown as mean±SD, n represents independent biological experiments.

[2] = system: IMR90 ER:RAS cells; test: Intracellular levels of SASP cytokines IL-6 and IL-8 by immunofluorescence; conditions: 4OHT-induced senescent cells; 7 days after addition of the drugs; FIGS. 12A-C
Method: Immunofluorescence staining was carried out by first fixing wells of 96 well plate at desired timepoint for 1 hour using 4% PFA (w/v, in PBS) followed by washing 3 times with PBS. Wells were then permeabilized using 0.2% Triton® X-100 (v/v, PBS) for 10 min or with 0.5% Triton® X-100 (v/v, PBS) for COPI staining. Wells were then washed twice with PBS to halt permeabilization and then non-specific antibody binding blocked by incubation with a blocking solution for 1 hour at RT. Blocking solution contained 1% BSA (w/v, PBS) supplemented with 0.4% Fish Skin Gelatin (v/v, PBS). Primary antibodies were diluted in respective blocking solution (see ‘Antibodies’ for dilutions), blocking solution removed from well and incubated with primary antibody solution for 1 hour at RT. […]
(§1) High content image analysis was carried out using the InCell Investigator 2.7.3 software (GE Healthcare®). […] Quantification for nuclear staining was measured as average pixel intensity (grey scale) for the wavelength of fluorophore across the area of the nuclear mask. Cytoplasmic staining quantification was of either the average pixel intensity or the coefficient of variance of pixel intensities within collar area. […]
The intracellular levels of two SASP components, IL-6 and IL-8 were assessed using stained cells. […]

[3] = system: IMR90 ER:RAS cells; test: Unfolded protein response markers (CHOP, XBP1, ATF6) by high throughput microscopy; conditions: 4OHT treated and control cells; FIGS. 13A-D
Method: Immunofluorescence staining was carried out by first fixing wells of 96 well plate at desired timepoint for 1 hour using 4% PFA (w/v, in PBS) followed by washing 3 times with PBS. Wells were then permeabilized using 0.2% Triton® X-100 (v/v, PBS) for 10 min or with 0.5% Triton® X-100 (v/v, PBS) for COPI staining. Wells were then washed twice with PBS to halt permeabilization and then non-specific antibody binding blocked by incubation with a blocking solution for 1 hour at RT. Blocking solution contained 1% BSA (w/v, PBS) supplemented with 0.4% Fish Skin Gelatin (v/v, PBS). Primary antibodies were diluted in respective blocking solution (see ‘Antibodies’ for dilutions), blocking solution removed from well and incubated with primary antibody solution for 1 hour at RT. For BrdU staining primary antibody solution is supplemented with 0.5 U/ul DNase (Sigma) and 1 mM MgCl2 and incubation times reduced to 30 minutes. […]
as §1

Compound | Dependence of senolytic activity on IRE1 / UPR [1] | Intracellular levels of IL-6 and IL-8 [2] | UPR activation (nuclear CHOP, XBP1, ATF6; percentage of cells above threshold) [3]
Cc1nn(C)c(C)c1CCOc1c(-c2ccc3c(c2)c(CN(C)C)nn3C)ccc(F)c1F [Compound 1, 1-(5-(3,4-difluoro-2-(2-(1,3,5-trimethyl-1H-pyrazol-4-yl)ethoxy)phenyl)-1-methyl-1H-indazol-3-yl)-N,N-dimethylmethanamine] | dependent on IRE1 and the unfolded protein response | selectively resulted in an intracellular accumulation of these cytokines on senescent cells | causes the induction of the unfolded protein response on senescent cells
Cc1c(NS(=O)(=O)c2c(Cl)cc(-c3ccnc(N4CCNCC4)c3)cc2Cl)c(CC(C)C)nn1C [Compound 2] | dependent on IRE1 and the unfolded protein response | selectively resulted in an intracellular accumulation of these cytokines on senescent cells | causes the induction of the unfolded protein response on senescent cells
